Experimental data taken from article PMC5218480 (PLoS ONE, 2017).

System: MV-4-11 cells
Experiment: Gene expression microarray analysis (Affymetrix PrimeView) and GSEA
Format: cell-based, human
Set-up: RFU PODN (11730768_x_at) / Fold change /veh PODN (11730768_x_at) / RFU LINC00158 (11744669_a_at) / Fold change /veh LINC00158 (11744669_a_at) / RFU DUSP10 (11751237_a_at) / Fold change /veh DUSP10 (11751237_a_at) / RFU ID3 (11757404_x_at) / Fold change /veh ID3 (11757404_x_at) / RFU PLEKHG5 (11737974_s_at) / Fold change /veh PLEKHG5 (11737974_s_at) / RFU LRRC4B (11730491_at) / Fold change /veh LRRC4B (11730491_at) / RFU GIMAP4 (11747438_a_at) / Fold change /veh GIMAP4 (11747438_a_at) / RFU KRT8 (11758183_x_at) / Fold change /veh KRT8 (11758183_x_at) / RFU CNN1 (11734310_a_at) / Fold change /veh CNN1 (11734310_a_at) / RFU VPS37D (11726825_at) / Fold change /veh VPS37D (11726825_at) / RFU C10orf10 (11716522_x_at) / Fold change /veh C10orf10 (11716522_x_at) / RFU KIR2DL2 /// KIR2DL4 /// KIR2DL5A /// KIR2DL5B /// KIR2DS1 /// KIR2DS2 /// KIR2DS3 /// KIR2DS4 /// KIR3DL3 /// KIR3DL3 /// KIR3DS1 (11738374_at) / Fold change /veh KIR2DL2 /// KIR2DL4 /// KIR2DL5A /// KIR2DL5B /// KIR2DS1 /// KIR2DS2 /// KIR2DS3 /// KIR2DS4 /// KIR3DL3 /// KIR3DL3 /// KIR3DS1 (11738374_at) / RFU C1QL1 (11718748_at) / Fold change /veh C1QL1 (11718748_at) / RFU TMPRSS4 (11747572_a_at) / Fold change /veh TMPRSS4 (11747572_a_at) / RFU HAMP (11756126_x_at) / Fold change /veh HAMP (11756126_x_at) / RFU RNFT2 (11725882_a_at) / Fold change /veh RNFT2 (11725882_a_at) / RFU NR4A2 (11747474_a_at) / Fold change /veh NR4A2 (11747474_a_at) / RFU ABCC12 (11746883_a_at) / Fold change /veh ABCC12 (11746883_a_at) / RFU TMEM136 (11760407_x_at) / Fold change /veh TMEM136 (11760407_x_at) / RFU CLDN22 /// WWC2 (11732394_at) / Fold change /veh CLDN22 /// WWC2 (11732394_at) / RFU HLA-DPB1 (11760878_x_at) / Fold change /veh HLA-DPB1 (11760878_x_at) / RFU SPINT1 (11716480_a_at) / Fold change /veh SPINT1 (11716480_a_at) / RFU GAP43 (11754022_s_at) / Fold change /veh GAP43 (11754022_s_at) / RFU A4GNT (11735810_at) / Fold change /veh A4GNT (11735810_at) / RFU PRB3 (11715151_x_at) / Fold change /veh PRB3 (11715151_x_at) / RFU TUBB4B (11761932_at) / Fold change /veh TUBB4B (11761932_at) / RFU CAPN14 (11732068_a_at) / Fold change /veh CAPN14 (11732068_a_at) / RFU TMCC2 (11721928_a_at) / Fold change /veh TMCC2 (11721928_a_at) / RFU IRGQ (11745062_a_at) / Fold change /veh IRGQ (11745062_a_at) / RFU FAM174B (11720279_a_at) / Fold change /veh FAM174B (11720279_a_at) / RFU TMPRSS4 (11748680_a_at) / Fold change /veh TMPRSS4 (11748680_a_at) / RFU FAM212B (11763350_a_at) / Fold change /veh FAM212B (11763350_a_at) / RFU PLEKHG5 (11743358_a_at) / Fold change /veh PLEKHG5 (11743358_a_at) / RFU ZSCAN30 (11745921_a_at) / Fold change /veh ZSCAN30 (11745921_a_at) / RFU CMKLR1 (11741424_a_at) / Fold change /veh CMKLR1 (11741424_a_at) / RFU LOC101060620 /// MAPK8IP1 (11723275_at) / Fold change /veh LOC101060620 /// MAPK8IP1 (11723275_at) / RFU SPTSSB (11747773_x_at) / Fold change /veh SPTSSB (11747773_x_at) / RFU PRSS12 (11739890_at) / Fold change /veh PRSS12 (11739890_at) / RFU BIN1 (11741810_x_at) / Fold change /veh BIN1 (11741810_x_at) / RFU WNT11 (11732464_a_at) / Fold change /veh WNT11 (11732464_a_at) / RFU C10orf10 (11716521_a_at) / Fold change /veh C10orf10 (11716521_a_at) / RFU C5orf56 (11738089_at) / Fold change /veh C5orf56 (11738089_at) / RFU CYB561 (11721691_x_at) / Fold change /veh CYB561 (11721691_x_at) / RFU ANKRD19P (11752326_a_at) / Fold change /veh ANKRD19P (11752326_a_at) / RFU OR2T12 /// OR2T33 /// OR2T8 (11738714_s_at) / Fold change /veh OR2T12 /// OR2T33 /// OR2T8 (11738714_s_at) / RFU VCAN (11748164_a_at) / Fold change /veh VCAN (11748164_a_at) / RFU JSRP1 (11732532_at) / Fold change /veh JSRP1 (11732532_at) / RFU KRTAP10-11 (11738290_x_at) / Fold change /veh KRTAP10-11 (11738290_x_at) / RFU MYO3A (11730013_a_at) / Fold change /veh MYO3A (11730013_a_at) / RFU EBF3 (11725865_a_at) / Fold change /veh EBF3 (11725865_a_at) / RFU CAMK2N1 (11719241_x_at) / Fold change /veh CAMK2N1 (11719241_x_at) / RFU C5orf56 (11738088_a_at) / Fold change /veh C5orf56 (11738088_a_at) / RFU OLFML3 (11715873_a_at) / Fold change /veh OLFML3 (11715873_a_at) / RFU LOC100653217 /// NTM (11731650_a_at) / Fold change /veh LOC100653217 /// NTM (11731650_a_at) / RFU MAPK11 (11762145_a_at) / Fold change /veh MAPK11 (11762145_a_at) / RFU FIZ1 (11724087_x_at) / Fold change /veh FIZ1 (11724087_x_at) / RFU OASL (11726364_x_at) / Fold change /veh OASL (11726364_x_at) / RFU SOX15 (11748057_x_at) / Fold change /veh SOX15 (11748057_x_at) / RFU CD79A (11719716_a_at) / Fold change /veh CD79A (11719716_a_at) / RFU HIST1H1D (11736915_at) / Fold change /veh HIST1H1D (11736915_at) / RFU CASKIN2 (11723855_a_at) / Fold change /veh CASKIN2 (11723855_a_at) / RFU LOC730098 (11760151_x_at) / Fold change /veh LOC730098 (11760151_x_at) / RFU OR4N2 (11742367_at) / Fold change /veh OR4N2 (11742367_at) / RFU PRRT2 (11749266_a_at) / Fold change /veh PRRT2 (11749266_a_at) / RFU SNX32 (11753110_a_at) / Fold change /veh SNX32 (11753110_a_at) / RFU CDHR5 (11726645_a_at) / Fold change /veh CDHR5 (11726645_a_at) / RFU RCAN1 (11760418_a_at) / Fold change /veh RCAN1 (11760418_a_at) / RFU FAM167A (11723789_a_at) / Fold change /veh FAM167A (11723789_a_at) / RFU FAM26E (11764081_at) / Fold change /veh FAM26E (11764081_at) / RFU ISYNA1 (11749810_s_at) / Fold change /veh ISYNA1 (11749810_s_at) / RFU ACY1 (11761880_at) / Fold change /veh ACY1 (11761880_at) / RFU 11764098_at / Fold change /veh 11764098_at / RFU SAMD14 (11745864_x_at) / Fold change /veh SAMD14 (11745864_x_at) / RFU NPB (11741838_a_at) / Fold change /veh NPB (11741838_a_at) / RFU TMPRSS6 (11731388_a_at) / Fold change /veh TMPRSS6 (11731388_a_at) / RFU KRTAP10-2 (11738614_at) / Fold change /veh KRTAP10-2 (11738614_at) / RFU ARHGAP8 /// PRR5-ARHGAP8 (11727945_x_at) / Fold change /veh ARHGAP8 /// PRR5-ARHGAP8 (11727945_x_at) / RFU KRTAP5-7 /// NADSYN1 (11734609_at) / Fold change /veh KRTAP5-7 /// NADSYN1 (11734609_at) / RFU RASL12 (11751679_a_at) / Fold change /veh RASL12 (11751679_a_at) / RFU CDKN2B (11736163_a_at) / Fold change /veh CDKN2B (11736163_a_at) / RFU PRF1 (11729649_at) / Fold change /veh PRF1 (11729649_at) / RFU, ZNF638 /// ZNF638-IT1 / Fold change vs veh, ZNF638 /// ZNF638-IT1 / RFU, PANK3 / Fold change vs veh, PANK3 / RFU, SH3YL1 / Fold change vs veh, SH3YL1 / RFU, ZEB2 / Fold change vs veh, ZEB2 / RFU, NRIP1 / Fold change vs veh, NRIP1 / RFU, PTTG1IP / Fold change vs veh, PTTG1IP / RFU, CAPN2 / Fold change vs veh, CAPN2 / RFU, MED14 / Fold change vs veh, MED14 / RFU, SNORA58 / Fold change vs veh, SNORA58 / RFU, C1orf63 / Fold change vs veh, C1orf63 / RFU, LRRFIP1 / Fold change vs veh, LRRFIP1 / RFU, NDUFAF7 / Fold change vs veh, NDUFAF7 / RFU, SLC12A2 / Fold change vs veh, SLC12A2 / RFU, IBTK / Fold change vs veh, IBTK / RFU, ESF1 / Fold change vs veh, ESF1 / Fold change vs veh, TMEM50B / RFU, TAOK1 / Fold change vs veh, TAOK1 / RFU, ACBD3 / Fold change vs veh, ACBD3 / RFU, TMA16 / Fold change vs veh, TMA16 / RFU, RWDD3 / Fold change vs veh, RWDD3 / RFU, BCAT1 / Fold change vs veh, BCAT1 / RFU, EDEM3 / Fold change vs veh, EDEM3 / RFU, TMEM33 / Fold change vs veh, TMEM33 / RFU, WDR75 / Fold change vs veh, WDR75 / RFU, AHCTF1 / Fold change vs veh, AHCTF1 / RFU, TFRC / Fold change vs veh, TFRC / RFU, ZDHHC17 / Fold change vs veh, ZDHHC17 / RFU, NOM1 / Fold change vs veh, NOM1 / RFU, ARL8B / Fold change vs veh, ARL8B / RFU, ZBTB11 / Fold change vs veh, ZBTB11 / RFU, TAMM41 / Fold change vs veh, TAMM41 / RFU, KIAA1704 /// LOC100996395 / Fold change vs veh, KIAA1704 /// LOC100996395 / RFU, ING1 / Fold change vs veh, ING1 / RFU, TRMT61B / Fold change vs veh, TRMT61B / RFU, FUBP3 / Fold change vs veh, FUBP3 / RFU, TP53 / Fold change vs veh, TP53 / RFU, TNKS2 / Fold change vs veh, TNKS2 / RFU, ZFP14 / Fold change vs veh, ZFP14 / RFU, ACTR2 / Fold change vs veh, ACTR2 / RFU, PPP3R1 / Fold change vs veh, PPP3R1 / RFU, PIK3R1 / Fold change vs veh, PIK3R1 / RFU, HNRNPA1 / Fold change vs veh, HNRNPA1 / RFU, RNF170 / Fold change vs veh, RNF170 / RFU, ZNF28 / Fold change vs veh, ZNF28 / RFU, RNGTT / Fold change vs veh, RNGTT / RFU, OGT / Fold change vs veh, OGT / RFU, BRD1 / Fold change vs veh, BRD1 / RFU, MARS / Fold change vs veh, MARS / RFU, ZNF655 / Fold change vs veh, ZNF655 / RFU, FAHD1 / Fold change vs veh, FAHD1 / RFU, BDP1 / Fold change vs veh, BDP1 / RFU, LRRCC1 / Fold change vs veh, LRRCC1 / RFU, ARID1A / Fold change vs veh, ARID1A / RFU, ZNF146 / Fold change vs veh, ZNF146 / RFU, ZNF330 / Fold change vs veh, ZNF330 / RFU, GPN3 / Fold change vs veh, GPN3 / RFU, C9orf123 / Fold change vs veh, C9orf123 / RFU, N4BP2L2 / Fold change vs veh, N4BP2L2 / RFU, ARFIP1 / Fold change vs veh, ARFIP1 / RFU, FAM179B / Fold change vs veh, FAM179B / RFU, BCL10 / Fold change vs veh, BCL10 / RFU, UHRF1BP1L / Fold change vs veh, UHRF1BP1L / RFU, BET1 / Fold change vs veh, BET1 / RFU, CNOT2 / Fold change vs veh, CNOT2 / RFU, ZNF268 / Fold change vs veh, ZNF268 / Fold change vs veh, ZNF507 / RFU, DGCR2 / Fold change vs veh, DGCR2 / RFU, WDSUB1 / Fold change vs veh, WDSUB1 / Fold change vs veh, HSP90B1 /// MIR3652 / RFU, ADSS / Fold change vs veh, ADSS / RFU, GK / Fold change vs veh, GK / RFU, ZNF148 / Fold change vs veh, ZNF148 / RFU, TAF9 / Fold change vs veh, TAF9 / RFU, SLC1A5 / Fold change vs veh, SLC1A5 / RFU, SLMO2 / Fold change vs veh, SLMO2 / RFU, ABCC4 / Fold change vs veh, ABCC4 / RFU, LOC101060439 /// RAP1B / Fold change vs veh, LOC101060439 /// RAP1B / RFU, RFX7 / Fold change vs veh, RFX7 / RFU, GTPBP10 / Fold change vs veh, GTPBP10 / RFU, CNEP1R1 / Fold change vs veh, CNEP1R1 / RFU, BIVM-ERCC5 /// ERCC5 / Fold change vs veh, BIVM-ERCC5 /// ERCC5 / RFU, ILF3 / Fold change vs veh, ILF3 / RFU 11762660_at / Fold change /veh 11762660_at / RFU VCAN (11757783_s_at) / Fold change /veh VCAN (11757783_s_at) / RFU DDX43 (11728927_at) / Fold change /veh DDX43 (11728927_at) / RFU KRT8 (11758188_x_at) / Fold change /veh KRT8 (11758188_x_at) / RFU NKD1 (11759106_at) / Fold change /veh NKD1 (11759106_at) / RFU SRD5A1 (11742802_a_at) / Fold change /veh SRD5A1 (11742802_a_at) / RFU TPSAB1 /// TPSB2 (11721975_s_at) / Fold change /veh TPSAB1 /// TPSB2 (11721975_s_at) / RFU GSTM3 (11746129_a_at) / Fold change /veh GSTM3 (11746129_a_at) / RFU IL23R (11737362_x_at) / Fold change /veh IL23R (11737362_x_at) / RFU TMEM51 (11727254_a_at) / Fold change /veh TMEM51 (11727254_a_at) / RFU PIWIL2 (11732686_x_at) / Fold change /veh PIWIL2 (11732686_x_at) / RFU ORM1 (11744905_x_at) / Fold change /veh ORM1 (11744905_x_at) / RFU CCDC152 (11743942_at) / Fold change /veh CCDC152 (11743942_at) / RFU ECM1 (11717891_a_at) / Fold change /veh ECM1 (11717891_a_at) / RFU IL23R (11748794_a_at) / Fold change /veh IL23R (11748794_a_at) / RFU TNFAIP8L3 (11732012_x_at) / Fold change /veh TNFAIP8L3 (11732012_x_at) / RFU MBOAT4 (11741988_at) / Fold change /veh MBOAT4 (11741988_at) / RFU 11764193_at / Fold change /veh 11764193_at / RFU TMEM53 (11763286_at) / Fold change /veh TMEM53 (11763286_at) / RFU MAGEB2 (11727129_at) / Fold change /veh MAGEB2 (11727129_at) / RFU TMEM200A (11744735_a_at) / Fold change /veh TMEM200A (11744735_a_at) / RFU CCDC152 (11751479_a_at) / Fold change /veh CCDC152 (11751479_a_at) / RFU FAM211A (11726209_a_at) / Fold change /veh FAM211A (11726209_a_at) / RFU RGS16 (11746705_a_at) / Fold change /veh RGS16 (11746705_a_at) / RFU VCAN (11755009_s_at) / Fold change /veh VCAN (11755009_s_at) / RFU RHOB (11743442_s_at) / Fold change /veh RHOB (11743442_s_at) / RFU RGS16 (11720943_a_at) / Fold change /veh RGS16 (11720943_a_at) / RFU RGS16 (11720944_at) / Fold change /veh RGS16 (11720944_at) / RFU, VPS4B / Fold change vs veh, VPS4B / RFU, CREB1 / Fold change vs veh, CREB1 / RFU, DNAJC13 / Fold change vs veh, DNAJC13 / RFU, GNAQ / Fold change vs veh, GNAQ / RFU, CDK5R1 / Fold change vs veh, CDK5R1 / RFU, ZRANB3 / Fold change vs veh, ZRANB3 / RFU, CUL4A / Fold change vs veh, CUL4A / RFU, CCNY / Fold change vs veh, CCNY / RFU, UFL1 / Fold change vs veh, UFL1 / RFU, COG3 / Fold change vs veh, COG3 / RFU, DIAPH2 / Fold change vs veh, DIAPH2 / RFU, SKA2 / Fold change vs veh, SKA2 / RFU, AFF3 / Fold change vs veh, AFF3 / RFU, LMF1 / Fold change vs veh, LMF1 / RFU, IPO11 / Fold change vs veh, IPO11 / RFU, DFFB / Fold change vs veh, DFFB / RFU, FOXP1 / Fold change vs veh, FOXP1 / RFU, CARD8 / Fold change vs veh, CARD8 / RFU, STRN3 / Fold change vs veh, STRN3 / RFU, ADK / Fold change vs veh, ADK / RFU, RASSF2 / Fold change vs veh, RASSF2 / RFU, WIPF1 / Fold change vs veh, WIPF1 / RFU, LARP1B / Fold change vs veh, LARP1B / RFU, RASA1 / Fold change vs veh, RASA1 / RFU, RB1 / Fold change vs veh, RB1 / RFU, PPFIA1 / Fold change vs veh, PPFIA1 / RFU, MAT2A / Fold change vs veh, MAT2A / RFU, CCT5 / Fold change vs veh, CCT5 / RFU, WDR92 / Fold change vs veh, WDR92 / RFU, CUX1 / Fold change vs veh, CUX1 / RFU, TTC7A / Fold change vs veh, TTC7A / RFU, TMEM135 / Fold change vs veh, TMEM135 / RFU, DEPTOR / Fold change vs veh, DEPTOR / RFU, CPM / Fold change vs veh, CPM / RFU, DNAJB6 / Fold change vs veh, DNAJB6 / RFU, CACNA2D3 / Fold change vs veh, CACNA2D3 / RFU, DTX4 / Fold change vs veh, DTX4 / RFU, TFCP2 / Fold change vs veh, TFCP2 / RFU, GMCL1 /// GMCL1P1 / Fold change vs veh, GMCL1 /// GMCL1P1 / RFU, AEBP2 / Fold change vs veh, AEBP2 / RFU, SNHG1 /// SNORD22 /// SNORD25 /// SNORD26 /// SNORD27 /// SNORD28 /// SNORD29 /// SNORD31 / Fold change vs veh, SNHG1 /// SNORD22 /// SNORD25 /// SNORD26 /// SNORD27 /// SNORD28 /// SNORD29 /// SNORD31 / Fold change (Aza/veh), C12orf56 (ProbeSet 11735607_a_at) / Fold change (ACY-1035/veh), C12orf56 (ProbeSet 11735607_a_at) / Fold change (Aza/veh), FGFR1OP (ProbeSet 11751329_s_at) / Fold change (ACY-1035/veh), FGFR1OP (ProbeSet 11751329_s_at) / Fold change (Aza/veh), VPS36 (ProbeSet 11739960_a_at) / Fold change (ACY-1035/veh), VPS36 (ProbeSet 11739960_a_at) / RFU SYPL1 (11715823_x_at) / Fold change /veh SYPL1 (11715823_x_at) / RFU IGFBP7 (11715501_s_at) / Fold change /veh IGFBP7 (11715501_s_at) / RFU REEP3 (11722064_at) / Fold change /veh REEP3 (11722064_at) / RFU IGLL1 (11728026_x_at) / Fold change /veh IGLL1 (11728026_x_at): dose or concentration left out as unconfirmed
Conditions: MV-4-11 cells, 48 hours

Question: How did the “RFU CDKN2B (11736163_a_at)” value turn out when Nc1ccc(-c2cccs2)cc1NC(=O)c1ccc2c(c1)cc(C1CC1)n2CCN1CCOCC1 [ACY-1035] was run?
Answer: 9.39 RFU
